Results from ChEMBL document CHEMBL6153042, “Glycoconjugates of adefovir and tenofovir as asialoglycoprotein-mediated Anti-HBV prodrugs with enhanced liver targeting” (Eur J Med Chem, 2025).

Tests used:
[1] = Prodrug release in human HepG2 cells assessed as adefovir release measured over 1 hrs by HPLC analysis; format: ADME, cell-based; conditions: hepg2, 1 h
[2] = Prodrug release in human HepG2 cells assessed as adefovir release by mass spectrometric analysis; format: ADME, cell-based
[3] = Drug metabolism in plasma of Sprague-Dawley rat assessed as hydrolyzed metabolite formation measured after 5 hrs by HPLC analysis; format: ADME, cell-free
[4] = Prodrug release in human HepG2 cells assessed as tenofovir release by mass spectrometric analysis; format: ADME, cell-based
[5] = Prodrug release in human HepG2 cells assessed as tenofovir release measured over 1 hrs by HPLC analysis; format: ADME, cell-based; conditions: hepg2, 1 h
[6] = Cmax in Sprague-Dawley rat at 50 mg/kg, po by LC-MS analysis; format: ADME, organism-based; conditions: in vivo
[7] = Tmax in Sprague-Dawley rat at 5 mg/kg, iv by LC-MS analysis; format: ADME, organism-based; conditions: in vivo
[8] = Toxicity in Kunming mouse assessed as effect on heart size at 100 to 200 mg/kg, iv once daily for 5 days; format: organism-based; conditions: in vivo, 120 h, dose 100-200 mg/kg, time 5 day
[9] = Clearance in Sprague-Dawley rat at 50 mg/kg, po by LC-MS analysis; format: ADME, organism-based; conditions: in vivo
[10] = Toxicity in Kunming mouse assessed as effect on liver colour at 100 to 200 mg/kg, iv once daily for 5 days; format: organism-based; conditions: in vivo, 120 h, dose 100-200 mg/kg, time 5 day
[11] = Toxicity in Kunming mouse assessed as effect on liver weight at 100 to 200 mg/kg, iv once daily for 5 days; format: organism-based; conditions: in vivo, 120 h, dose 100-200 mg/kg, time 5 day
[12] = AUC (0 to infinity) in Sprague-Dawley rat at 50 mg/kg, po by LC-MS analysis; format: ADME, organism-based; conditions: in vivo
LX-2 [13] = assay: Cytotoxicity against human LX2 cells assessed as cell growth inhibition at 10 uM incubated for 48 hrs by CCK8 assay relative to control; format: toxicity, cell-based; conditions: lx-2, 48 h, 10 µM
[14] = Toxicity in Kunming mouse assessed as effect on body weight at 100 to 200 mg/kg, iv administered once daily for 5 days; format: organism-based; conditions: in vivo, 120 h, dose 100-200 mg/kg, time 5 day
[15] = Toxicity in Kunming mouse assessed as effect on heart colour at 100 to 200 mg/kg, iv once daily for 5 days; format: organism-based; conditions: in vivo, 120 h, dose 100-200 mg/kg, time 5 day
[16] = Cmax in Sprague-Dawley rat at 5 mg/kg, iv by LC-MS analysis; format: ADME, organism-based; conditions: in vivo
[17] = Oral bioavailability in Sprague-Dawley rat at 50 mg/kg by LC-MS analysis; format: ADME, organism-based; conditions: in vivo
[18] = Toxicity in Kunming mouse assessed as effect on kidney weight at 100 to 200 mg/kg, iv once daily for 5 days; format: organism-based; conditions: in vivo, 120 h, dose 100-200 mg/kg, time 5 day
[19] = Toxicity in Kunming mouse assessed as effect on heart weight at 100 to 200 mg/kg, iv once daily for 5 days; format: organism-based; conditions: in vivo, 120 h, dose 100-200 mg/kg, time 5 day
[20] = Half-life in Sprague-Dawley rat at 50 mg/kg, po by LC-MS analysis; format: ADME, organism-based; conditions: in vivo
[21] = Tmax in Sprague-Dawley rat at 50 mg/kg, po by LC-MS analysis; format: ADME, organism-based; conditions: in vivo
[22] = Toxicity in Kunming mouse assessed as histopathological changes in heart at 200 mg/kg, iv once daily for 5 days by H and E staining based analysis; format: organism-based; conditions: in vivo, 120 h, time 5 day
[23] = AUC (0 to t) in Sprague-Dawley rat at 5 mg/kg, iv by LC-MS analysis; format: ADME, organism-based; conditions: in vivo
Hepatitis B virus = assay: Antiviral activity against Hepatitis B virus infected in human HepG2.2.15 cells assessed as inhibition of HBV DNA replication incubated for 10 day by qPCR analysis; format: functional, organism-based; conditions: HepG2.2.15, 240 h
[24] = Cytotoxicity against human HepG2.2.15 cells assessed as inhibition of cell proliferation by CCK8 assay; format: toxicity, cell-based, HepG2 2.2.15
[25] = Toxicity in Kunming mouse assessed as effect on kidney colour at 100 to 200 mg/kg, iv once daily for 5 days; format: organism-based; conditions: in vivo, 120 h, dose 100-200 mg/kg, time 5 day
[26] = Toxicity in Kunming mouse assessed as histopathological changes in liver at 200 mg/kg, iv once daily for 5 days by H and E staining based analysis; format: organism-based; conditions: in vivo, 120 h, time 5 day
[27] = Selectivity index, the ratio of CC50 for human HepG2.2.15 cells to EC50 for antiviral activity against HBV in human HepG2.2.15 cells assessed as inhibition of HBV DNA replication; format: toxicity, cell-based; conditions: read-out: Ratio CC50/EC50
LX-2 [28] = assay: Cytotoxicity against human LX2 cells at 5 uM incubated for 48 hrs by CCK8 assay; format: toxicity, cell-based; conditions: lx-2, 48 h
[29] = Clearance in Sprague-Dawley rat at 5 mg/kg, iv by LC-MS analysis; format: ADME, organism-based; conditions: in vivo
[30] = Metabolic stability in human liver microsomes assessed as half-life measured upto 60 mins by LC-MS/MS analysis; format: ADME, Microsome
[31] = Metabolic stability in rat liver microsomes assessed as half-life measured upto 60 mins by LC-MS/MS analysis; format: ADME, Microsome
[32] = Toxicity in Kunming mouse assessed as effect on liver size at 100 to 200 mg/kg, iv once daily for 5 days; format: organism-based; conditions: in vivo, 120 h, dose 100-200 mg/kg, time 5 day
[33] = Half-life in Sprague-Dawley rat at 5 mg/kg, iv by LC-MS analysis; format: ADME, organism-based; conditions: in vivo
[34] = Drug uptake in Sprague-Dawley rat at 50 mg/kg, po or 5 mg/kg, iv measured after 2 to 3 hrs by LC-MS/MS analysis; format: ADME, organism-based; conditions: in vivo, time 2-3 hrs
[35] = Toxicity in Kunming mouse assessed as histopathological changes in kidney at 200 mg/kg, iv once daily for 5 days by H and E staining based analysis; format: organism-based; conditions: in vivo, 120 h, time 5 day
[36] = AUC (0 to infinity) in Sprague-Dawley rat at 5 mg/kg, iv by LC-MS analysis; format: ADME, organism-based; conditions: in vivo
[37] = AUC (0 to t) in Sprague-Dawley rat at 50 mg/kg, po by LC-MS analysis; format: ADME, organism-based; conditions: in vivo
[38] = Toxicity in Kunming mouse assessed as maximum tolerated dose administered intravenously as once daily dose for 5 days; conditions: in vivo, route iv, time 5 day
[39] = Toxicity in Kunming mouse assessed as effect on kidney size at 100 to 200 mg/kg, iv once daily for 5 days; format: organism-based; conditions: in vivo, 120 h, dose 100-200 mg/kg, time 5 day

SMILES: CC(=O)N[C@H]1[C@H](OCCCCC(=O)NCCCNC(=O)CCOCC(COCCC(=O)NCCCNC(=O)CCCCO[C@@H]2O[C@H](CO)[C@H](O)[C@@H](O)[C@H]2NC(C)=O)(COCCC(=O)NCCCNC(=O)CCCCO[C@@H]2O[C@H](CO)[C@H](O)[C@@H](O)[C@H]2NC(C)=O)NC(=O)CCC(=O)NCCOCCOCCOCCOCCn2cc(COP(=O)(O)COCCn3cnc4c(N)ncnc43)nn2)O[C@H](CO)[C@H](O)[C@H]1O
- Drug metabolism [1]: metabolite_detected
- Drug metabolism [2]: metabolite_detected
- Drug metabolism [3]: metabolite_notdetected
- Drug metabolism [4]: metabolite_detected
- Drug metabolism [5]: metabolite_detected

SMILES: CC(=O)N[C@H]1[C@H](OCCCCC(=O)NCCOCCOCCOCCOCCn2cc(COP(=O)(CO[C@H](C)Cn3cnc4c(N)ncnc43)OCOC(=O)C(C)(C)C)nn2)O[C@H](CO)[C@H](O)[C@H]1O (stereo not given in full)
- Cmax [6]: 1500 ng/mL
- Tmax [7]: 1.98 min
- Activity [8]: Non-toxic
- CL/F [9]: 172 mL/min/kg
- Activity [10]: Non-toxic
- Activity [11]: Non-toxic
- AUC(0-inf) [12]: 4930 ng·h/mL
- Activity (LX-2 [13]): Toxic
- Activity [14]: Non-toxic
- Activity [15]: Non-toxic
- Cmax [16]: 2030 ng/mL
- bioavailability [17]: 23.4%
- Activity [18]: Non-toxic
- Activity [19]: Non-toxic
- half-life [20]: 192 min
- Tmax [21]: 45 min
- Activity [22]: Non-toxic
- AUC(0-t) [23]: 2100 ng·h/mL
- EC50 (Hepatitis B virus): 214 nM
- CC50 [24]: > 100000 nM
- Activity [25]: Non-toxic
- Activity [26]: Non-toxic
- selectivity ratio [27]: > 468
- Activity (LX-2 [28]): Toxic
- clearance [29]: 40.7 mL/min/kg
- half-life [30]: 12.4 min
- half-life [31]: 2.13 min
- Activity [32]: Non-toxic
- half-life [33]: 67.2 min
- Drug uptake [34]: Not_active
- Activity [35]: Non-toxic
- AUC(0-inf) [36]: 2130 ng·h/mL
- AUC(0-t) [37]: 4900 ng·h/mL
- MTD at 120 h [38]: ~200 mg/kg
- Activity [39]: Non-toxic

SMILES: CC(=O)N[C@H]1[C@H](OCCCCC(=O)NCCOCCOCCOCCOCCn2cc(COP(=O)(COCCn3cnc4c(N)ncnc43)OCOC(=O)C(C)(C)C)nn2)O[C@H](CO)[C@H](O)[C@H]1O (stereo not given in full)
- Cmax [6]: 1290 ng/mL
- Tmax [7]: 1.98 min
- Activity [8]: Non-toxic
- CL/F [9]: 252 mL/min/kg
- Activity [10]: Non-toxic
- Activity [11]: Non-toxic
- AUC(0-inf) [12]: 3310 ng·h/mL
- Activity (LX-2 [13]): Toxic
- Activity [14]: Non-toxic
- Activity [15]: Non-toxic
- Cmax [16]: 2010 ng/mL
- bioavailability [17]: 16.6%
- Activity [18]: Non-toxic
- Activity [19]: Non-toxic
- half-life [20]: 191 min
- Tmax [21]: 40.2 min
- Activity [22]: Non-toxic
- AUC(0-t) [23]: 1990 ng·h/mL
- EC50 (Hepatitis B virus): 260 nM
- CC50 [24]: > 100000 nM
- Activity [25]: Non-toxic
- Activity [26]: Non-toxic
- selectivity ratio [27]: > 384
- Activity (LX-2 [28]): Toxic
- clearance [29]: 42.1 mL/min/kg
- half-life [30]: 14.9 min
- half-life [31]: 2.33 min
- Activity [32]: Non-toxic
- half-life [33]: 46.8 min
- Drug uptake [34]: Not_active
- Activity [35]: Non-toxic
- AUC(0-inf) [36]: 2000 ng·h/mL
- AUC(0-t) [37]: 3300 ng·h/mL
- MTD at 120 h [38]: ~200 mg/kg
- Activity [39]: Non-toxic
